According to US12209072B2, “Cyclopentyl acids as LPA antagonists” (BRISTOL-MYERS SQUIBB COMPANY, priority 2018, dated 2025):
pIC50: −log10 of the molar value.

molecular target: T1, human LPA1 (Homo sapiens, UniProt Q92633); assay: LPA1 functional antagonist assay (LPA-induced calcium flux); type: cell-based; conditions: CHO cells overexpressing human LPA1; inhibition of calcium flux induced by 10 nM LPA; read-out: hLPA1 IC50
T1 construct: expressed in transfected cells; host or cells: Chinese hamster ovary (CHO) cells
Procedure, shortened: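 CHO cells overexpressing human LPA1, loaded with calcium dye, given compound (0.08 nM–5 μM final, 0.5% DMSO) for 20 min at room temperature in HBSS/HEPES with 0.1% fatty-acid-free BSA, then stimulated with 10 nM LPA. IC50 defined as 50% inhibition of LPA-induced calcium flux, from 4-parameter logistic fit.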

T1 sequence (Q92633 whole entry): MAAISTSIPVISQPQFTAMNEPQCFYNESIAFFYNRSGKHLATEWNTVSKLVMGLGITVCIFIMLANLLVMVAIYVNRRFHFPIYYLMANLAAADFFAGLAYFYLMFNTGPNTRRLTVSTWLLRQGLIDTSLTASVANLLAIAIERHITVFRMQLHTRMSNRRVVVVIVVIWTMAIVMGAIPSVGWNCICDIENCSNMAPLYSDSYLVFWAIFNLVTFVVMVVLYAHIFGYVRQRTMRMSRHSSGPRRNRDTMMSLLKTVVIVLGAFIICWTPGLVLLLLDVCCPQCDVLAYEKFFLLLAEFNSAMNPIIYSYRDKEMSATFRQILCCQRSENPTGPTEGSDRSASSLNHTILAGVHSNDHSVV

`Cc1nc(-c2nnn(C)c2CNC(=O)OCC2(C)CC2)ccc1O[C@H]1CC[C@H](CC(=O)O)C1` (racemic) [Example 59, (±)-trans-2-[3-[(2-methyl-6-{1-methyl-5-[({[(1-methylcyclopropyl)methoxy]carbonyl}amino)methyl]-1H-1,2,3-triazol-4-yl}pyridin-3-yl)oxy]cyclo-pentyl]acetic acid] and `CCCC1(N(C)C(=O)OCc2c(-c3ccc(O[C@@H]4CC[C@@H](CC(=O)O)C4)c(C)n3)nnn2C)CC1` (racemic) [Example 10, (±)-Trans-2-(3-((2-methyl-6-(1-methyl-5-(((methyl(1-propylcyclopropyl)carbamoyl)oxy)methyl)-1H-1,2,3-triazol-4-yl)pyridin-3-yl)oxy)cyclopentyl)acetic Acid] are within 0.2 log units of each other in pIC50: 6.56 for the first, 6.43 for the second.

Compared with `CC(C)CCN(C)C(=O)OCc1c(-c2ccc(O[C@H]3CC[C@@H](C(=O)O)C3)cc2)nnn1C` (relative stereo) [Example 12, Cis-3-(4-(5-(((isopentyl(methyl)carbamoyl)oxy)methyl)-1-methyl-1H-1,2,3-triazol-4-yl)phenoxy)cyclo-pentane-1-carboxylic acid], `Cc1noc(-c2ccc(O[C@H]3CC[C@H](C(=O)O)C3)cc2)c1COC(=O)N(C)CCC(C)C` (racemic) [Example 72, (±)-trans-3-{4-[3-methyl-4-({[methyl(3-methylbutyl)carbamoyl]oxy}methyl)-1,2-oxazol-5-yl]phenoxy}cyclopentane-1-carboxylic acid] is 0.25 log units higher in pIC50: 6.35 for the first, 6.60 for the second. The second is the more potent here.

Compared with `Cc1nc(-c2onc(C)c2COC(=O)N(C)C2CCCC2)ccc1O[C@H]1CC[C@H](C(=O)O)C1` (racemic) [Example 77, (±)-trans-3-({6-[4-({[cyclopentyl(methyl)carbamoyl]oxy}methyl)-3-methyl-1,2-oxazol-5-yl]-2-methyl-pyridin-3-yl}oxy)cyclopentane-1-carboxylic acid], `Cc1nc(-c2onc(C)c2COC(=O)N(C)C2CCCC2)ccc1O[C@H]1CC[C@@H](CC(=O)O)C1` (racemic) [Example 47, (±)-cis-2-[3-({6-[4-({[cyclopentyl(methyl)carbamoyl]oxy}methyl)-3-methyl-1,2-oxazol-5-yl]-2-methyl-pyridin-3-yl}oxy)cyclopentyl]acetic acid] is 0.42 log units higher in pIC50: 7.18 for the first, 7.60 for the second. The second is the more potent here.

First: Cc1nc(-c2nnn(C)c2COC(=O)N(C)CC2CCC2)ccc1O[C@H]1CC[C@H](C(=O)O)C1 (single isomer, unassigned) [Example 78, Trans-(1,3)-3-({6-[5-({[(cyclobutyl-methyl)(methyl)carbamoyl]oxy}methyl)-1-methyl-1H-1,2,3-triazol-4-yl]-2-methylpyridin-3-yl}oxy)cyclopentane-1-carboxylic acid]
Second: Cc1nc(-c2nnn(C)c2COC(=O)N(C)CC2CCC2)ccc1O[C@H]1CC[C@H](CC(=O)O)C1 (single isomer, unassigned) [Example 49, (±)-trans-2-[3-({6-[5-({[(cyclobutyl-methyl)(methyl)carbamoyl]oxy}methyl)-1-methyl-1H-1,2,3-triazol-4-yl]-2-methylpyridin-3-yl}oxy)cyclopentyl]acetic acid]
The pIC50 of the first is 0.34 log units lower: 7.55 for the first, 7.89 for the second.

Compared with `Cc1nc(-c2nnn(C)c2COC(=O)N(C)Cc2ccccc2)ccc1O[C@@H]1CC[C@@H](C(=O)O)C1` (racemic) [Example 22, (±)-trans-3-((6-(5-(((benzyl(methyl)carbamoyl)oxy)methyl)-1-methyl-1H-1,2,3-triazol-4-yl)-2-methylpyridin-3-yl)oxy)cyclopentane carboxylic acid], `CCCN(C)C(=O)OCc1c(-c2ccc(O[C@@H]3CC[C@@H](C(=O)O)C3)c(C)n2)nnn1C` (racemic) [Example 23, (±)-trans-3-((2-methyl-6-(1-methyl-5-(((methyl(propyl)carbamoyl)oxy)methyl)-1H-1,2,3-triazol-4-yl)pyridin-3-yl)oxy)cyclopentanecarboxylic acid] is 1.05 log units lower in pIC50: 6.74 for the first, 5.69 for the second.

Going from `Cc1nc(-c2nnn(C)c2NC(=O)OCC2CC2)ccc1O[C@H]1CC[C@H](CC(=O)O)C1` (racemic) [Example 83, (±)-trans-2-[3-{[6-(5-{(cyclopropylmethoxy)carbonyl]amino}-1-methyl-1H-1,2,3-triazol-4-yl)-2-methyl-pyridin-3-yl]oxy}cyclopentyl]acetic acid] to `Cc1nc(-c2nnn(C)c2COC(=O)N(C)C2CCC2)ccc1O[C@H]1CC[C@H](CC(=O)O)C1` (racemic) [Example 63, (±)-trans-2-[3-({6-[5-({[cyclobutylmethyl-1H-1,2,3-triazol-4-yl]-2-(methyl)carbamoyl]oxy}methyl)-1-methylpyridin-3-yl}oxy)cyclopentyl]acetic acid], the pIC50 rises from 5.91 to 7.02 (1.11 log units). The second is the more potent here.

`Cc1noc(-c2ccc(OC3CCC(C(=O)O)C3)cn2)c1CNc1nccc(-c2ccccc2)n1` (single isomer, unassigned) [Example 46] and `Cc1noc(-c2ccc(O[C@@H]3CC[C@@H](CC(=O)O)C3)cn2)c1CNc1nccc(-c2ccccn2)n1` (racemic) [Example 29, (±)2-(Trans-3-((6-(3-methyl-4-(((4-(pyridin-2-yl)pyrimidin-2-yl)amino)methyl)isoxazol-5-yl)pyridin-3-yl)oxy)cyclopentyl)acetic Acid] are within 0.2 log units of each other in pIC50: 7.25 for the first, 7.27 for the second.

Compared with `Cc1nc(-c2onc(C)c2COC(=O)N(C)C2CCCC2)ccc1O[C@@H]1CC[C@@H](CC(=O)O)C1` (racemic) [Example 8, (±)-Trans-2-(3-((6-(4-(((cyclopentyl(methyl)carbamoyl)oxy)methyl)-3-methylisoxazol-5-yl)-2-methylpyridin-3-yl)oxy)cyclopentyl)acetic Acid], `Cc1nc(-c2nnn(C)c2COC(=O)N(C)C2CCCC2)ccc1O[C@H]1CC[C@H](CC(=O)O)C1` (racemic) [Example 56, (±)-trans-2-[3-({6-[5-({[cyclopentyl(methyl)carbamoyl]oxy}methyl)-1-methyl-1H-1,2,3-triazol-4-yl]-2-methylpyridin-3-yl}oxy)cyclopentyl]acetic acid] is 0.84 log units lower in pIC50: 7.89 for the first, 7.05 for the second. The first is the more potent here.

`Cc1nc(-c2nnn(C)c2COC(=O)N(C)CC2CCC2)ccc1O[C@H]1CC[C@H](CC(=O)O)C1` (single isomer, unassigned) [Example 7, (±)-Trans-2-((1,3)-3-((6-(5-((((cyclobutylmethyl)(methyl)carbamoyl)oxy)methyl)-1-methyl-1H-1,2,3-triazol-4-yl)-2-methylpyridin-3-yl)oxy)cyclopentyl) acetic Acid] and `Cc1nc(-c2nnn(C)c2COC(=O)N(C)CC2CCC2)ccc1O[C@H]1CC[C@H](C(=O)O)C1` (single isomer, unassigned) [Example 79, Trans-(1,3)-3-({6-[5-({[(cyclobutyl-methyl) (methyl)carbamoyl]oxy}methyl)-1-methyl-1H-1,2,3-triazol-4-yl]-2-methylpyridin-3-yl}oxy)cyclo-pentane-1-carboxylic acid] are within 0.2 log units of each other in pIC50: 6.12 for the first, 6.17 for the second.

Going from `Cc1nc(-c2nnn(C)c2COC(=O)N2CCC3(CCC3)C2)ccc1O[C@H]1CC[C@H](CC(=O)O)C1` (racemic) [Example 61, (±)-trans-2-[3-({6-[5-({6-azaspiro[3.4]octane-6-carbonyloxy}methyl)-1-methyl-1H-1,2,3-triazol-4-yl]-2-methylpyridin-3-yl}oxy)cyclopentyl]acetic acid] to `Cc1nc(-c2nnn(C)c2COC(=O)N2CCC3(CC3)C2)ccc1O[C@H]1CC[C@H](CC(=O)O)C1` (racemic) [Example 67, (±)-trans-2-[3-({6-[5-({5-azaspiro[2.4]heptane-5-carbonyloxy}methyl)-1-methyl-1H-1,2,3-triazol-4-yl]-2-methylpyridin-3-yl}oxy)cyclopentyl]acetic acid], the pIC50 falls from 6.35 to 6.11 (0.24 log units).

Going from `Cc1noc(-c2ccc(OC3CCC(C(=O)O)C3)cn2)c1CNc1nccc(-c2ccccc2)n1` (single isomer, unassigned) [Example 45] to `Cc1nc(-c2onc(C)c2CNc2nccc(-c3ccccn3)n2)ccc1OC[C@@H]1CC[C@H](C(=O)O)C1` (relative stereo) [Example 35, cis-3-(((2-methyl-6-(3-methyl-4-(((4-(pyridin-2-yl)pyrimidin-2-yl)amino)methyl)isoxazol-5-yl)pyridin-3-yl)oxy)methyl)cyclopentane-1-carboxylic acid], the pIC50 rises from 7.77 to 8.05 (0.28 log units).

Compared with `CCCCN(C)C(=O)OCc1c(-c2ccc(O[C@H]3CC[C@H](CC(=O)O)C3)c(C)n2)nnn1C` (single isomer, unassigned) [Example 5, (±)-Trans-2-(3-((6-(5-(((butyl(methyl)carbamoyl)oxy)methyl)-1-methyl-1H-1,2,3-triazol-4-yl)-2-methylpyridin-3-yl)oxy)cyclopentyl)acetic Acid], `Cc1nc(-c2nnn(C)c2COC(=O)N(C)CC2CC2)ccc1O[C@H]1CCC[C@H]1CC(=O)O` (racemic) [Example 89, (±)-cis-2-(2-((6-(5-((((cyclopropyl-methyl)(methyl)carbamoyl)oxy)methyl)-1-methyl-1H-1,2,3-triazol-4-yl)-2-methylpyridin-3-yl)oxy)cyclopentyl)acetic acid] is 0.52 log units higher in pIC50: 6.02 for the first, 6.54 for the second.

`Cc1nc(-c2nnn(C)c2COC(=O)N(C)C2CCCC2)c(F)cc1O[C@H]1CC[C@H](CC(=O)O)C1` (racemic) [Example 69, (±)-trans-2-[3-({6-[5-({[cyclopentyl(methyl)carbamoyl]oxy}methyl)-1-methyl-1H-1,2,3-triazol-4-yl]-5-fluoro-2-methylpyridin-3-yl}oxy)cyclopentyl]acetic acid] and `Cc1nc(-c2nnn(C)c2COC(=O)N(C)CC2CCC2)cnc1O[C@H]1CC[C@H](CC(=O)O)C1` (single isomer, unassigned) [Example 27, 2-(trans-3-((5-(5-((((cyclobutylmethyl)(methyl)carbamoyl)oxy)methyl)-1-methyl-1H-1,2,3-triazol-4-yl)-3-methylpyrazin-2-yl)oxy)cyclopentyl)acetic Acid] are within 0.2 log units of each other in pIC50: 6.68 for the first, 6.59 for the second.

`Cc1noc(-c2ccc(O[C@H]3CC[C@H](C(=O)O)C3)cc2)c1NC(=O)O[C@H](C)c1ccccc1` (single isomer, unassigned) [Example 2] gave a pIC50 of 7.51.
